Laboratory results taken from patent US11318190B2, “Methods and compositions for treating liver disease” (UNITED STATES GOVERNMENT AS REPRESENTED BY THE DEPARTMENT …, priority 2017, dated 2022).

How the values were obtained:
[1] = test system: HHSteCs; test: HHSteCs incubated with biliary/IMCL supernatants with/without LY2109761, or with TGF-β1 (Example 2); assay type: cell-based, human
Protocol: (§1) Biliary supernatants were obtained from normal and BDL WT mice and Sct^−/−, SR^−/− and Sct^−/−/SR^−/− BDL mice as well as normal WT mice treated with saline or secretin. HHSteCs were incubated with the aforementioned biliary supernatants (containing different levels of TGF-β1) for 24 hr (in the absence or presence of LY2109761) before measuring the expression of senescence and fibrosis genes by real-time PCR. Furthermore, HHSteCs were incubated with the supernatant of large IMCLs treated for 0.2% bovine serum albumin (basal) or secretin (10 nM) with/without LY2109761 for 6 hr before measuring the mRNA expression of fibrosis and senescence genes. To provide direct evidence that TGF-β1 directly modulates fibrosis and senescence of IMCLs and HHSteCs, these cells were stimulated with TGF-β1 (10 nM) for 24 hr before measuring the expression of PCNA as well as fibrosis and senescence genes by real-time PCR.

[2] = test system: dnTGF-βRII mice; test: dnTGF-βRII mice 12 wk (early stage PBC model) treated 1 wk by osmotic minipump; assay type: in vivo, mouse; conditions: dnTGF-βRII 12 wk
Protocol: Briefly, we used wild-type (WT), dnTGFβRII 12 wk and dnTGFβRII 34 wk mice treated with control or SR antagonist (SCT 5-27) minipump (10 μg/kg/day) for 1 wk. Hepatic damage was shown by H&E. IBDM and cholangiocyte proliferation were measured by immunohistochemistry for CK-19 and Ki67, respectively. Biliary apoptosis was evaluated by TUNEL staining. Senescence was measured in cholangiocytes by immunofluorescence for CCL2 or p16 co-stained with CK-19 (to image bile ducts) and SA-β-Galactosidase activity. Hepatic fibrosis was assessed by qPCR for collagen-1a and α-SMA in total liver, and quantification of Sirius Red staining. Hepatic stellate cell (HSC) activation was evaluated by immunofluorescence (IF) for Syp-9. HSC senescence was evaluated by IF for CCL2 or p16 co-stained with desmin (to visualize HSCs). Secretin levels in serum and bile were measured by EIA. Bile and serum were obtained from human control, early PBC and advanced PBC patients, and secretin was evaluated by EIA.
All animal procedures were performed according to protocols approved by the Baylor Scott & White Health IACUC Committee. Transgenic mice expressing a dominant-negative form of the human transforming growth factor-beta receptor II (dnTGF-βRII) were obtained from Dr. M. Eric Gershwin at UC Davis Health (Sacramento, Calif.), and background-matched wild-type (WT, strain C57BL/6) mice were purchased from Charles River Laboratories (Wilmington, Mass.); the breeding colony is established in our animal facility. Animals were maintained in micro-isolator cages in a temperature-controlled environment with 12/12-hr light/dark cycles and fed ad libitum standard chow with free access to drinking water. Studies were performed in 12 wk-old WT mice, and 12 wk-old (mimic early stage PBC) and 32 wk-old (mimic late stage PBC) female and male dnTGF-βRII mice (25-30 gm) that were treated with either saline, secretin (Sct; 2.5 nmoles/kg body weight per day; Bachem, Torrance, Calif.) or the secretin receptor (SR) antagonist, Sec 5-27 (10 μg/kg body weight per day; Thermo Fisher Scientific, Waltham, Mass.) for 1 wk by intraperitoneally implanted osmotic minipump. Liver tissue samples and blocks (formalin-fixed, paraffin-embedded and OCT-embedded), serum, bile, cholangiocytes, and cholangiocyte supernatants (after incubation at 37° C. for 4 hr) were collected as described.
Hematoxylin and eosin (H&E) staining was performed in formalin-fixed, paraffin-embedded liver sections (4-5 μm, 3 samples from 3 different animals) to determine liver morphology. H&E stained liver sections were evaluated by a board-certified pathologist to assess the degree of lobular damage, hepatic necrosis and portal inflammation. At least 10 different portal areas were evaluated for each parameter. Liver sections were examined in a coded fashion by BX-51 light microscopy (Olympus, Tokyo, Japan) equipped with a camera (See, Mancinelli, R et al., Ischemia reperfusion of the hepatic artery induces the functional damage of large bile ducts by changes in the expression of angiogenic factors. Am J Physiol Gastrointest Liver Physiol 2015; 309:G865-873 (2015); Taffetani S et al., Prolactin stimulates the proliferation of normal female cholangiocytes by differential regulation of Ca2+-dependent PKC isoforms, BMC Physiol 7:6 (2007)).
Serum levels of alkaline phosphatase (ALP) and γ-glutamyltransferase (γGT) are commonly used to diagnose PBC (Heathcote, E J, Management of primary biliary cirrhosis. The American Association for the Study of Liver Diseases practice guidelines, Hepatology 31:1005-1013 (2000)); therefore, were measured serum levels of ALP and γGT in mouse serum samples using the Alkaline Phosphatase Assay Kit and γ-Glutamyltransferase Activity Colorimetric Assay Kit, respectively (Abcam; Cambridge, Mass.).
Early stage PBC is identified by cholangiocyte proliferation, whereas late stage PBC is characterized by ductopenia. […]

[3] = test system: large IMCLs; test: Large IMCLs treated with secretin with/without LY2109761, or with TGF-β1 (Example 2); assay type: cell-based, mouse; conditions: secretin 10 nM, 12 hr
Text: Cholangiocytes were obtained by immunoaffinity separation as described herein above, using a monoclonal antibody (a gift from Dr. R. Faris, Brown University, Providence, R.I.) that is expressed by all intrahepatic cholangiocytes. HSCs from the selected groups of mice were isolated by LCM as described previously in Wu, N et al., The secretin/secretin receptor axis modulates liver fibrosis through changes in transforming growth factor-beta1 biliary secretion in mice, Hepatology (Baltimore, Md.) 64(3):865-879 (2016). Briefly, frozen liver sections (n=3, 10 μm thick) were incubated overnight with an anti-desmin (a marker of stellate cells) antibody. Then, desmin-positive cells were dissected from the slides using a LCM system Leica LMD7000 (Buffalo Grove, Ill.) and were collected before RNA extraction with the Arcturus PicoPure RNA isolation kit (Thermo Fisher Scientific CO, Mountain View, Calif.). The in vitro studies were performed in: (I) immortalized murine cholangiocyte lines derived from large cholangiocytes lining large ducts (IMCLs); and (ii) human hepatic stellate cell lines (HHSteCs; ScienCell Research Laboratories, Carlsbad, Calif.).
WT mice were treated for 1 wk with saline or secretin (Sct; 2.5 nmoles/kg body weight per day) before collecting cholangiocytes, HSCs and cholangiocyte supernatants. The levels of TGF-β1 were measured in short-term (6-hour) cultures of cholangiocytes by ELISA kits. Subsequently, we measured: (i) liver fibrosis by immunofluorescence for Col1a1 in liver sections and real-time PCR for TGF-β1, TFG-β1R, Col1a1, α-SMA and Fn1 in cholangiocytes and HSCs; and (ii) cellular senescence by immunofluorescence in liver sections for p16 and real-time PCR for p16 and p21 in cholangiocytes and HSC.
as §1

[4] = cholangiocyte supernatant from secretin-treated WT mice, 24 hr
[5] = supernatant of large IMCLs after secretin 10 nM, 6 hr

Substance: secretin [Sct]
- expression of fibrosis genes in HHSteCs [1, 4]: increased expression
- expression of senescence genes in HHSteCs [1, 4]: reduced expression
- expression of senescence genes of HHSteCs [1, 5]: decreases
- fibrosis gene expression of HHSteCs [1, 5]: increases
- HSC activation (SYP-9 staining) [2]: further enhanced
- biliary senescence (p16, p18, p21, CCL2) [2]: further increased
- cholangiocyte apoptosis (TUNEL-positive cholangiocytes) [2]: further reduced
- liver damage (H&E: portal inflammation, inflammatory infiltration, lobular necrosis) [2]: further increased
- Sct, SR, CFTR and AE2 expression ([2]; vs saline treated): further increase
- collagen content / deposition (Sirius Red), hepatic fibrosis ([2]; vs saline treated): further enhanced
- serum levels of ALP and γGT ([2]; vs saline treated): further increased
- intrahepatic bile duct mass (IBDM, CK-19) ([2]; vs saline treated, 1 wk minipump): further increase
- secretion of TGF-β1 and expression of fibrosis and senescence genes of large IMCLs [3]: increased
